Measurements taken from patent publication US20130053243A1, “PLANTS HAVING INCREASED TOLERANCE TO HERBICIDES” (BASF SE, priority 2010, published 2013).

Tested on: C. reinhardtii (CC-503)
Test: C. reinhardtii growth inhibition by HPPD inhibiting herbicides
Assay type: cell-based, Chlamydomonas reinhardtii
Excerpt: Bleaching herbicides with a mode of action in plastoquinone or tocopherol biosynthesis can inhibit algae growth (Tables 14 and 15). These effects can be partly reversed by intermediates of homogentisic acid biosynthesis (Table 14). To generate mutations conferring “coumarone-derivative herbicide” resistance in HPPD or HST genes, chemical or UV mutagenesis can be used. Especially unicellular organisms like Chlamydomonas reinhardtii or Scenedesmus obliquus are useful for identifying dominant mutations in herbicide resistance.
Algae cells of Chlamydomonas reinhardtii strains CC-503 and CC-1691 (Duke University, Durham, USA) are propagated in TAP medium (Gorman and Levine (1965) PNAS 54: 1665-1669) by constant shaking at 100 rpm, 22° C. and 30 μmol Phot*m^−2*[…] light illumination. Scenedesmus obliquus (University of Gottingen, Germany) are propagated in algae medium as described (Boger and Sandmann, (1993) In: Target assays for modern herbicides and related phytotoxic compounds, Lewis Publishers) under same culturing conditions as mentioned for Chlamydomonas. Compound screening is performed at 450 μmol Phot*m^−2*[…] illumination.

## Cc1c(C(=O)c2cnn(C)c2O)ccc(S(C)(=O)=O)c1C1=NOCC1 [Topramezone, reference compound]
C 1 * 10^−4 M
  Growth inihibition [%] C. reinhardtii (CC-503): 100%
  Growth inihibition [%] C. reinhardtii (CC-503) + Homogentisic acid: 80%
C 5 * 10^−4 M
  Growth inihibition [%] C. reinhardtii (CC-503): 100%
  Growth inihibition [%] C. reinhardtii (CC-503) + Homogentisic acid: 100%
